Test results reported in patent publication US20030027799A1, “Methods of treating cancer using a combination of drugs” (priority 2001, published 2003).

What was measured:
[1] = Dose escalation study of β-L-OddC and cisplatin in cancer patients: dose limiting toxicity, maximum tolerated dose; assay type: in vivo; details: β-L-OddC in combination with cisplatin 50 mg/m^2, administered every four weeks
Description: The patients selected were adult patients with solid tumours that were refractory to standard therapies. […] They had adequate bone marrow, renal and hepatic function. There were 33 patients treated. Sixteen were male patients and seventeen were female. Twenty patients had colorectal cancer. Two patients had melanoma. One patient each had gastric cancer, islet cell cancer of the pancreas, non-small lung cancer (NSCLC), renal cancer, cervical cancer, breast cancer, ovarian cancer, squamous cell cancer of the pelvis, liver cancer, abdominal cancer and penile cancer. […] The terms LP and HP refer to lightly pre-treated and heavily pre-treated patient status. The term DLT refers to Dose limiting Toxicity.

[2] = system: various forms of cancers (e.g. solid tumours, adult leukemia and lymphomas); details: Weitman 2000, Giles 2001, Gourdeau 2001; cited from earlier work

## Nc1ccn([C@@H]2CO[C@H](CO)O2)c(=O)n1 [β-L-OddC, (−)-β-L-Dioxolane-Cytidine]
[1]
  recommended dose for heavily pre-treated patients: 4.8 mg/m^2
[2]
  activity in the treatment of various forms of cancers: potent activity
